# Data published in publication PMC8017969, “Redox regulation of NADP-malate dehydrogenase is vital for land plants under fluctuating light environment” (Proceedings of the National Academy of Sciences of the …, 2021).
# Legend:
# MDHΔC = molecular target: T1, MDHΔC (Arabidopsis thaliana, UniProt Q8H1E2); assay: NADPH oxidation monitored at […] nm, Michaelis-Menten fit; type: biochemical; settings: reduced enzyme (pretreated with Trx-f1 and DTT); 0-200 μM oxaloacetate, 100 μM NADPH, 0.01 μM MDH, pH 7.5, 50 mM NaCl, 25 °C
# T1 construct: gene At5g58330; mature enzyme from Ser54 plus start Met, C-terminal extension from Cys430 to C terminus deleted, pET-23c, expressed in E. coli
# T1 sequence (Q8H1E2 54-429): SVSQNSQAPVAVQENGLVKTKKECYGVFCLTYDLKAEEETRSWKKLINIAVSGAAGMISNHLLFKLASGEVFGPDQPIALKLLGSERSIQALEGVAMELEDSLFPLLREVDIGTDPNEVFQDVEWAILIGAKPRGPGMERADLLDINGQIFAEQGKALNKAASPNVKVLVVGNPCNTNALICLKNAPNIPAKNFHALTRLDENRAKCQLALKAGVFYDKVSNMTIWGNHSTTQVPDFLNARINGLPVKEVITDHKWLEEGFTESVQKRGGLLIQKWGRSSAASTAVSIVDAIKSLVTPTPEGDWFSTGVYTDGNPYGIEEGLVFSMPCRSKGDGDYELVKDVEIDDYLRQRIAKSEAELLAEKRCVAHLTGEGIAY
# [1] = molecular target: T2, MDHWT (chloroplast NADP-malate dehydrogenase) (Arabidopsis thaliana, UniProt Q8H1E2); assay: as above; type: biochemical; settings: reduced enzyme (pretreated with Trx-f1 and DTT); 0-200 μM oxaloacetate, 100 μM NADPH, 0.01 μM MDH, pH 7.5, 50 mM NaCl, 25 °C
# T2 construct: gene At5g58330; mature enzyme from Ser54 plus start Met (transit peptide removed), pET-23c, expressed in E. coli, purified with added size exclusion step
# T2 sequence (Q8H1E2 54-443): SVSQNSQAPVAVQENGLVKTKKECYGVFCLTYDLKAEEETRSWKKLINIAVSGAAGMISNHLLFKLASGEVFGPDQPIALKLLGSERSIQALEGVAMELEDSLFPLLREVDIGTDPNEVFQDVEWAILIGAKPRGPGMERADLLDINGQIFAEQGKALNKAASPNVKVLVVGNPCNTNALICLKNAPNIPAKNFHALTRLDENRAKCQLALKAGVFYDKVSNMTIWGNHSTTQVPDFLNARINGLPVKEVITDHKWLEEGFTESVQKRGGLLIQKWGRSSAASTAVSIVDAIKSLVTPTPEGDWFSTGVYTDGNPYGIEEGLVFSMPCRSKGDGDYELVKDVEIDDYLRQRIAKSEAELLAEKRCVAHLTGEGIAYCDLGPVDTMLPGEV
smiles,measurement,setting,value
O=C(O)CC(=O)C(=O)O [oxaloacetate],"NADPH oxidation monitored at 340 nm, Michaelis-Menten fit",MDHΔC,Activities of recombinant MDHWT and MDHΔC
same,"NADPH oxidation monitored at 340 nm, Michaelis-Menten fit",[1],Activities of recombinant MDHWT and MDHΔC
